# Biological target: T1, ENPP1 (Homo sapiens, UniProt P22413)
# T1 sequence (P22413 1-925): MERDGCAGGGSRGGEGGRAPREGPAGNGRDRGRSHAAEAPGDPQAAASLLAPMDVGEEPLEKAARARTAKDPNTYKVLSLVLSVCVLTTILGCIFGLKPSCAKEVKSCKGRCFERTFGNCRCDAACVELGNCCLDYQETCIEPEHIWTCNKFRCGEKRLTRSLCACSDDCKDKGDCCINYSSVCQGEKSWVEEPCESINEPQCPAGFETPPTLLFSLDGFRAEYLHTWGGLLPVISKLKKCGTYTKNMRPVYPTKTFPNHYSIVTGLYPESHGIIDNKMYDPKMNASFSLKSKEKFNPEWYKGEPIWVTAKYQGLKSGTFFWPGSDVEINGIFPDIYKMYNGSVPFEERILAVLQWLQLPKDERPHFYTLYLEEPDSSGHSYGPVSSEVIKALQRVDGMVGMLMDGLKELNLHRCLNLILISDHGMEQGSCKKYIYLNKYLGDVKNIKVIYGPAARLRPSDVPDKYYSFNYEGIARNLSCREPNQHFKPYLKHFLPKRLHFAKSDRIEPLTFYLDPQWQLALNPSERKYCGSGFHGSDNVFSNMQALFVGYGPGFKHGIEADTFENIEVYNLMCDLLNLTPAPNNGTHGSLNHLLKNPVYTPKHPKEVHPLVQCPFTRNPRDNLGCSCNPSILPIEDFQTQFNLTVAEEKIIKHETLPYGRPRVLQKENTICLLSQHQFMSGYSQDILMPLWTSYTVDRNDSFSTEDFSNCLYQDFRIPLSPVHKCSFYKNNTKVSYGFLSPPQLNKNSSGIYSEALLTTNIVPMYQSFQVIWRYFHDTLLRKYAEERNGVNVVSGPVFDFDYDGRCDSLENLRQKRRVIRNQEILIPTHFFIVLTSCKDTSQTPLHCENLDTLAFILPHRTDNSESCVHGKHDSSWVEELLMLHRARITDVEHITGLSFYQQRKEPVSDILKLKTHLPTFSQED
# Test: Measurement of pNP-TMP hydrolysis by ENPP1
# Assay type: biochemical
# Settings: pNP-TMP substrate 500 μM, Km 232 μM; Ki from IC50 by Cheng-Prusoff
# Procedure: Measurement of pNP-TMP hydrolysis by ENPP1
# p-Nitrophenyl thymidine 5′-monophosphate (pNP-TMP) is a synthesized substrate for ENPP1. The ENPP1 enzyme activity assay with pNP-TMP substrate was conducted as follows:
# First, in a 60 μl reaction, 7.5 ng purified ENPP1 was mixed with 1.2 μl compounds of Formula (I) (test compound) ranging from 13.7 nM to 10 μM. Incubation of ENPP1 with compounds was set at 25° C. for 10 min. Reactions with DMSO only (with ENPP1 but no compound) gave the fastest reaction (MAX Activity). For each compound dilution, wells with assay buffer (50 mM Tris -HCl, pH8.8, 250 mM NaCl, 0.1 mg/ml BSA) and test compounds but no ENPP1 were included as controls for the subtraction of test compound derived absorbance at 405 nm.
# Second, after 10 minutes incubation of ENPP1 and test compound, the assay was initiated by transferring 50 μl of the above mentioned ENPP1/test compound reaction into 50 μl of 1 mM pNP-TMP in assay buffer results in a 100 μl total reaction in non-binding surface clear bottom 96 well plates. Absorbance at 405 nm was recorded immediately in kinetic mode by PerkinElmer 2300 Enspire multimode plate reader.
# For each inhibitor, the specific ENPP1 activity was calculated using the following equation: ENPP1 activity (pmol/min/μg)=Adjusted Vmax (OD405 nm/min) X conversion factor (pmol/OD405 nm)/amount of enzyme (μg)
# Adjusted Vmax=V0X (Km+(S))/(S). In this assay, Km=232 μM, (S)=500 μM. Adjusted Vmax=1.464 X V0.
# V0=(OD405 nm with ENPP1-OD405 nm ENPP1 blank)/minutes. OD405 nm was plotted, with blank subtracted, against time (minutes), the initial linear rate is V0.
# The conversion factor (pmol/OD405 nm), was determined by plotting the amount of standard, 4-Nitrophenol (Sigma -Aldrich, Catalog #241326), against absorbance at 405 nm. The slope is the conversion factor. The percent ENPP1 activity for each sample was calculated using the following equation: […]
# To determine the IC50 for each compound, compound concentration values and percent enzyme activity values were inserted into GraphPad Prism (GraphPad Prism version 9.0 for Windows, GraphPad Software, La Jolla California USA, www.graphpad.com), and Prism's Transform analysis was used to convert the x-axis values (compound concentration) to logarithms. A sigmoidal variable slope nonlinear regression analysis was performed using the following equation: Y=Bottom+ (Top-Bottom)/(1+10^((Log IC50″X) *HillSlope)).
# Ki values for each compound were calculated from the observed IC50 from GraphPad analysis using the Cheng-Prusoff equation: Ki=IC50/(1+(S)/KM). (S) here is 500 μM and KM is determined to be 232 μM.
row,Structure (SMILES),Ki [µM]
1,"CS(=N)(=O)CC1CC2(C1)CN(c1ncnc3c(O)nccc13)C2 (single isomer, unassigned) [Example 2b, ((2-(8-hydroxypyrido[3,4-d]pyrimidin-4-yl)-2-azaspiro[3.3]heptan-6-yl)methyl) (imino)(methyl)-lambda6-sulfanone]",0.01 to 0.1
2,"N=[S@](=O)(c1cccc(COc2ccnc3c(OCF)nccc23)c1)C1CC1 (single isomer, unassigned) [Example 42]",0.01 to 0.1
3,"COc1nccc2c(OCc3cc(F)cc([S@](=N)(=O)C4CC4)c3)ccnc12 (single isomer, unassigned) [Example 68]",< 0.01
4,"COc1nccc2c(OCc3cc(F)cc([S@](C)(=N)=O)c3)ccnc12 (single isomer, unassigned) [Example 70]",0.01 to 0.1
5,"C[S@@](=N)(=O)c1cccc(COc2ccnc3c(OCF)nccc23)c1 (single isomer, unassigned) [Example 78]",0.01 to 0.1
6,"CS(=N)(=O)CC1CC2(C1)CN(c1ccnc3cnccc13)C2 (stereo not shown) [Example 1, imino(methyl) [[2-(1,7-naphthyridin-4-yl)-2-azaspiro[3.3]heptan-6-yl]methyl]-lambda6-sulfanone]",< 0.01
7,"COc1nccc2c(N3CC(CCCS(C)(=N)=O)C3)ccnc12 (stereo not shown) [Example 3, imino (3-(1-(8-methoxy-1,7-naphthyridin-4-yl)azetidin-3-yl)propyl)(methyl)-lambda6-sulfanone]",< 0.01
8,"COc1nccc2c(N3CCC(O)(CS(=N)(=O)C4CC4)CC3)ccnc12 (stereo not shown) [Example 4, cyclopropyl((4-hydroxy-1-(8-methoxy-1,7-naphthyridin-4-yl)piperidin-4-yl)-methyl) (imino)-lambda6-sulfanone]",< 0.01
9,CS(=N)(=O)c1ccc(COc2ccnc3cnccc23)cc1 (stereo not shown) [Example 7],0.01 to 0.1
10,"COc1nccc2c(OCc3cccc([S@](=N)(=O)C4CC4)c3)ccnc12 [Example 17a, (R)-Cyclopropyl(imino)(3-(((8-methoxy-1,7-naphthyridin-4-yl)oxy)methyl)phenyl)-lambda6-sulfanone]",0.01 to 0.1
11,"COc1nccc2c(N3CCC4(C3)CN(S(C)(=N)=O)C4)ccnc12 (stereo not shown) [Example 44, 8-methoxy-4-(2-(S-methylsulfonimidoyl)-2,6-diazaspiro(3.4)octan-6-yl)-1,7-naphthyridine]",< 0.01
12,"COc1nccc2c(N3CC4(CCN(S(C)(=N)=O)C4)C3)ccnc12 (stereo not shown) [Example 45, 8-methoxy-4-(6-(S-methylsulfonimidoyl)-2,6-diazaspiro(3.4)octan-2-yl)-1,7-naphthyridine]",< 0.01
13,"CCOc1nccc2c(N3CCC(O)(CS(C)(=N)=O)CC3)ccnc12 (stereo not shown) [Example 46, ((1-(8-ethoxy-1,7-naphthyridin-4-yl)-4-hydroxypiperidin-4-yl)methyl) (imino)-(methyl)-lambda6-sulfanone]",< 0.01
14,"COc1nccc2c(Oc3ccc(S(C)(=N)=O)cc3)ccnc12 (stereo not shown) [Example 50, imino (4-((8-methoxy-1,7-naphthyridin-4-yl)oxy)phenyl)(methyl)-lambda6-sulfanone]",< 0.01
15,"COc1nccc2c(Oc3cccc(S(C)(=N)=O)c3)ccnc12 (stereo not shown) [Example 51, imino (3-((8-methoxy-1,7-naphthyridin-4-yl)oxy)phenyl)(methyl)-lambda6-sulfanone]",0.1 to 10
16,"CS(=N)(=O)CC1(O)CCN(c2ccnc3c(OC4CC4)nccc23)CC1 (stereo not shown) [Example 52, ((1-(8-cyclopropoxy-1,7-naphthyridin-4-yl)-4-hydroxypiperidin-4-yl)methyl) (imino)(methyl)-lambda6-sulfanone]",0.01 to 0.1
17,"CN=S(C)(=O)N1CCC2(CCN(c3ccnc4c(OC)nccc34)C2)CC1 (stereo not shown) [Example 53, ((2-(8-methoxy-1,7-naphthyridin-4-yl)-2,8-diazaspiro(4.5)decan-8-yl)(methyl)oxo-lambda6-sulfanylidene)(methyl)amine]",0.1 to 10
18,"CN=S(C)(=O)N1CCC2(CCN(c3ccnc4c(OC)nccc34)C2)C1 (stereo not shown) [Example 54, ((7-(8-methoxy-1,7-naphthyridin-4-yl)-2,7-diazaspiro(4.4)nonan-2-yl)(methyl)oxo-lambda6-sulfanylidene)(methyl)amine]",0.1 to 10
19,"CN=S(=O)(c1cccc(COc2ccnc3c(OC)nccc23)c1)C1CC1 (stereo not shown) [Example 55, cyclopropyl(3-(((8-methoxy-1,7-naphthyridin-4-yl)oxy)methyl)phenyl)(methylimino)-lambda6-sulfanone]",0.1 to 10
20,"CN=S(=O)(c1cccc(COc2ncnc3c(OC)nccc23)c1)C1CC1 (stereo not shown) [Example 56, cyclopropyl(3-(((8-methoxypyrido[3,4-d]pyrimidin-4-yl)oxy)methyl)phenyl)-(methylimino)-lambda6-sulfanone]",0.1 to 10
21,"CN=S(C)(=O)CC1(O)CCN(c2ccnc3c(OC)nccc23)CC1 (stereo not shown) [Example 57, ((4-hydroxy-1-(8-methoxy-1,7-naphthyridin-4-yl)piperidin-4-yl)methyl)(methyl)-(methylimino)-lambda6-sulfanone]",< 0.01
22,"CN=S(C)(=O)CC1CC2(C1)CN(c1ccnc3c(OC)nccc13)C2 (stereo not shown) [Example 58, ((2-(8-methoxy-1,7-naphthyridin-4-yl)-2-azaspiro(3.3)heptan-6-yl)methyl-methyl)(methylimino)-lambda6-sulfanone]",0.1 to 10
23,"COc1nccc2c(OCc3cc(S(=N)(=O)C4CC4)ccc3F)ccnc12 (stereo not shown) [Example 59, cyclopropyl(4-fluoro-3-(((8-methoxy-1,7-naphthyridin-4-yl)oxy)methyl)-phenyl) (imino)-lambda6-sulfanone]",< 0.01
24,"N=S(=O)(c1cccc(COc2ccnc3c(OC4CC4)nccc23)c1)C1CC1 (stereo not shown) [Example 60, (3-(((8-cyclopropoxy-1,7-naphthyridin-4-yl)oxy)methyl)phenyl)-(cyclopropyl) (imino)-lambda6-sulfanone]",0.1 to 10
25,"CC(C)Oc1nccc2c(OCc3cccc(S(=N)(=O)C4CC4)c3)ccnc12 (stereo not shown) [Example 61, cyclopropyl(imino) (3-(((8-isopropoxy-1,7-naphthyridin-4-yl)oxy)methyl)phenyl)-lambda6-sulfanone]",0.1 to 10
26,"CCCOc1nccc2c(OCc3cccc(S(=N)(=O)C4CC4)c3)ccnc12 (stereo not shown) [Example 62, cyclopropyl(imino) (3-(((8-propoxy-1,7-naphthyridin-4-yl)oxy)methyl)phenyl)-lambda6-sulfanone]",0.1 to 10
27,"CS(=N)(=O)CCC1(O)CCN(c2ccnc3c(OCF)nccc23)CC1 (stereo not shown) [Example 63, (2-(1-(8-(fluoromethoxy)-1,7-naphthyridin-4-yl)-4-hydroxypiperidin-4-yl)ethyl)-(imino)(methyl)-lambda6-sulfanone]",0.01 to 0.1
28,"CS(=N)(=O)CCC1CCN(c2ccnc3c(OCF)nccc23)CC1 (stereo not shown) [Example 65, (2-(1-(8-(fluoromethoxy)-1,7-naphthyridin-4-yl)piperidin-4-yl)ethyl)-(imino)(methyl)-lambda6-sulfanone]",< 0.01

# From US20250320204A1 (RIBOSCIENCE LLC, priority 2023, published 2025)
